Laboratory results taken from patent publication US11746102B2, “Polymorphs of selinexor” (Karyopharm Therapeutics Inc., priority 2014, dated 2023).

Experiment: Solubility assessment (visual) of selinexor in solvents and solvent mixtures
Format: physicochemical
Conditions: any of the MTBE:heptane mixtures investigated

O=C(/C=C\n1cnc(-c2cc(C(F)(F)F)cc(C(F)(F)F)c2)n1)NNc1cnccn1 [Selinexor, (Z)-3-(3-(3,5-bis(trifluoromethyl)phenyl)-1H-1,2,4-triazol-1-yl)-N′-(pyrazin-2-yl)acrylohydrazide]
Solubility: > 100 volumes
